Measured values from patent US12180146B2, “Antihypertensive polyol compound and derivative thereof” (TAO PHARMACEUTICAL (SUZHOU) CO., LTD, priority 2020, dated 2024).

Tested on: spontaneously hypertensive rats (SHR)
Assay: Antihypertensive activity test: blood pressure and heart rate of spontaneously hypertensive rats (SHR)
Assay type: in vivo, rat
Settings: 200 mg/kg; for SHR heart rate, time after administration 0 h / SHR heart rate, time after administration 1 h / SHR heart rate, time after administration 2 h / SHR heart rate, time after administration 3 h / SHR heart rate, time after administration 4 h / SHR heart rate, time after administration 5 h / SHR heart rate, time after administration 6 h: N = 8; for Blood pressure (SBP, mmHg) After administration / Heart rate (beat/min) After administration: after administration (6 h M ± SD); for Heart rate Difference (beat/min): after administration minus baseline (6 h); for Blood pressure Difference mmHg: baseline minus after administration (6 h); for Blood pressure (SBP, mmHg) Baseline / Heart rate (beat/min) Baseline: before administration, M ± SD
Method: Tested Drugs: Compounds of the Invention. The dosage of all compound was uniformly set to 200 mg/kg.
In the test, changes in the blood pressure before and after the administration were detected, and compared with the basic value, a reduction of SBP ≥20 mmHg after administration was judged as effective antihypertensive effects; and at the same time, changes in the heart rate before and after the administration were detected.
Heart rate was expressed as mean±standard deviation (x±s). The changes of heart rate before and after the administration were compared by using Two-sample equal variance paired t test, and P<0.05 was regarded as the standard of statistically significant difference.

Compound	SBP Difference before and after administration, 1 h	SHR blood pressure (SBP), time after administration 1 h (n = 8)	SBP Difference before and after administration, 2 h	SHR blood pressure (SBP), time after administration 2 h (n = 8)	SBP Difference before and after administration, 3 h	SHR blood pressure (SBP), time after administration 3 h (n = 8)	SBP Difference before and after administration, 4 h	SHR blood pressure (SBP), time after administration 4 h (n = 8)	SBP Difference before and after administration, 5 h	SHR blood pressure (SBP), time after administration 5 h (n = 8)	SBP Difference before and after administration, 6 h	SHR blood pressure (SBP), time after administration 6 h (n = 8)	other results
Cc1ccc(C(O)CO)cc1 (stereo not shown) [Compound 12]	3 mmHg	184 ± 10.6 mmHg	5 mmHg	182 ± 10.4 mmHg	4 mmHg	183 ± 9.90 mmHg	9 mmHg	178 ± 6.61 mmHg	5 mmHg	182 ± 7.25 mmHg	3 mmHg	184 ± 12.1 mmHg	SHR heart rate, time after administration 0 h (0 h): 333 ± 44.0 beat/min; Heart rate Difference before and after administration, 1 h: −5 beat/min; SHR heart rate, time after administration 1 h: 328 ± 47.6 beat/min; Heart rate Difference before and after administration, 2 h: 8 beat/min; SHR heart rate, time after administration 2 h: 342 ± 46.9 beat/min; Heart rate Difference before and after administration, 3 h: 15 beat/min; SHR heart rate, time after administration 3 h: 348 ± 53.2 beat/min; Heart rate Difference before and after administration, 4 h: 3 beat/min; SHR heart rate, time after administration 4 h: 336 ± 54.5 beat/min; Heart rate Difference before and after administration, 5 h: −3 beat/min; SHR heart rate, time after administration 5 h: 331 ± 51.0 beat/min; Heart rate Difference before and after administration, 6 h: 3 beat/min; SHR heart rate, time after administration 6 h: 336 ± 52.7 beat/min; Blood pressure (SBP, mmHg) After administration (n = 8): 181 ± 8.80 mmHg; Heart rate (beat/min) After administration (n = 8): 336 ± 49.5 beat/min; Heart rate Difference (beat/min): 3 beat/min; Blood pressure Difference mmHg: 6 mmHg; Blood pressure (SBP, mmHg) Baseline (n = 8): 187 ± 11.9 mmHg; Heart rate (beat/min) Baseline (n = 8): 333 ± 44.0 beat/min
CCC(O)c1cccc(CO)c1 (stereo not shown) [Compound 13]	3 mmHg	186 ± 12.4 mmHg	12 mmHg	178 ± 12.0 mmHg	19 mmHg	171 ± 13.1 mmHg	14 mmHg	176 ± 11.4 mmHg	10 mmHg	180 ± 11.9 mmHg	14 mmHg	176 ± 10.1 mmHg	SHR heart rate, time after administration 0 h (0 h): 319 ± 21.0 beat/min; Heart rate Difference before and after administration, 1 h: 6 beat/min; SHR heart rate, time after administration 1 h: 325 ± 24.2 beat/min; Heart rate Difference before and after administration, 2 h: 14 beat/min; SHR heart rate, time after administration 2 h: 332 ± 38.9 beat/min; Heart rate Difference before and after administration, 3 h: 17 beat/min; SHR heart rate, time after administration 3 h: 335 ± 43.8 beat/min; Heart rate Difference before and after administration, 4 h: 15 beat/min; SHR heart rate, time after administration 4 h: 334 ± 45.8 beat/min; Heart rate Difference before and after administration, 5 h: 10 beat/min; SHR heart rate, time after administration 5 h: 329 ± 39.5 beat/min; Heart rate Difference before and after administration, 6 h: 2 beat/min; SHR heart rate, time after administration 6 h: 320 ± 43.1 beat/min; Blood pressure (SBP, mmHg) After administration (n = 8): 178 ± 11.2 mmHg; Heart rate (beat/min) After administration (n = 8): 329 ± 27.7 beat/min; Heart rate Difference (beat/min): 10 beat/min; Blood pressure Difference mmHg: 12 mmHg; Blood pressure (SBP, mmHg) Baseline (n = 8): 190 ± 13.2 mmHg; Heart rate (beat/min) Baseline (n = 8): 319 ± 21.0 beat/min
COc1ccc([C@@H](O)[C@H](C)O)cc1Cl [Compound 14]	3 mmHg	182 ± 11.6 mmHg	7 mmHg	178 ± 10.8 mmHg	8 mmHg	177 ± 10.9 mmHg	5 mmHg	18 ± 15.80 mmHg	1 mmHg	184 ± 16.0 mmHg	−1 mmHg	186 ± 17.7 mmHg	–
CC(=O)OC(C)C(OC(C)=O)c1ccccc1 (stereo not shown) [Compound 15]	14 mmHg	176 ± 9.55 mmHg	18 mmHg	172 ± 7.36 mmHg	21 mmHg	169 ± 4.07 mmHg	17 mmHg	173 ± 7.15 mmHg	15 mmHg	175 ± 5.61 mmHg	10 mmHg	180 ± 6.66 mmHg	–
COc1ccc(C(O)C(=O)O)cc1 (stereo not shown) [Compound 17]	9 mmHg	186 ± 12.4 mmHg	7 mmHg	188 ± 12.0 mmHg	14 mmHg	181 ± 13.1 mmHg	9 mmHg	186 ± 11.4 mmHg	15 mmHg	180 ± 11.9 mmHg	9 mmHg	186 ± 10.1 mmHg	SBP Difference before and after administration, 0 h (0 h): 0 mmHg
OCC(O)C(OC1OC(CO)C(O)C(O)C1O)c1ccc(O)cc1 (stereo not shown) [Compound 18]	16 mmHg	176 ± 6.39 mmHg	18 mmHg	174 ± 4.50 mmHg	21 mmHg	171 ± 9.15 mmHg	19 mmHg	173 ± 13.7 mmHg	18 mmHg	174 ± 15.9 mmHg	14 mmHg	178 ± 8.78 mmHg	–
CCOC(=O)OC(CO)c1cccc(CC)c1 (stereo not shown) [Compound 19]	12 mmHg	182 ± 11.6 mmHg	16 mmHg	178 ± 10.8 mmHg	17 mmHg	177 ± 10.9 mmHg	13 mmHg	181 ± 15.80 mmHg	10 mmHg	184 ± 16.0 mmHg	8 mmHg	186 ± 17.7 mmHg	–
COP(=O)(OC)OCC(O)c1ccccc1 (stereo not shown) [Compound 20]	6 mmHg	186 ± 9.55 mmHg	10 mmHg	182 ± 7.36 mmHg	3 mmHg	189 ± 4.07 mmHg	9 mmHg	183 ± 7.15 mmHg	7 mmHg	185 ± 5.61 mmHg	2 mmHg	190 ± 6.66 mmHg	SHR blood pressure (SBP), time after administration 0 h (0 h, n = 8): 192 ± 7.98 mmHg
CC(C)(O)[C@H](O)[C@H](O)c1cccc2[nH]ccc12 [Compound 21]	11 mmHg	184 ± 10.6 mmHg	13 mmHg	182 ± 10.4 mmHg	12 mmHg	183 ± 9.90 mmHg	17 mmHg	178 ± 6.61 mmHg	13 mmHg	182 ± 7.25 mmHg	11 mmHg	184 ± 12.1 mmHg	–
